Assay results taken from US6559167B1, “Prodrugs of proton pump inhibitors” (Regents of the University of California, priority 1998, dated 2003).
Values joined by “and” are separate entries in the source; they are usually repeats but may differ in a detail not shown here. Equal values may be shown once.

Experiments:
[1] = Acid stability in 95% methanol containing 0.1N HCl; format: physicochemical; details: after 2.25 hour in 95% methanol containing 0.1N HCl
Description: Acid stability of the compounds was assayed in 95% methanol containing 0.1N HCl. Approximately 90% of the compound of Example 1 was still present intact (without decomposition) after 2.25 hour in this solution.

gastric H,K-ATPase = target: T1, gastric H,K-ATPase (Sus scrofa, UniProt P19156); experiment: Inhibition of ATPase activity using isolated hog gastric vesicles; format: biochemical; details: for inhibition of enzyme activity after 80 minutes: after 80 minutes at pH 7.4, 37° C.; for inhibition of gastric H,K-ATPase activity initially (before hydrolysis): 10, 20, 50, and 100 μM, pH 7.4, 37° C.
T1 construct: from tissue; host or cells: hog gastric vesicles (stomach mucosa)
From the text: By way of concrete examples, the following tests and results are described. […] This is consistent with the knowledge that the compounds obtained by hydrolysis e. g. LANSOPRAZOLE, OMEPRAZOLE, PANTOPRAZOLE and RABEPRAZOLE are well known H,K-ATPase inhibitors. […] Another good example is 2-(2-carbamoylmethoxy-4-{2-[4-(3-methoxypropoxy)-3-methyl pyridin-2-yl methylsulfinyl]benzimidazole-1-sulfonyl}phenoxy)acetamide. The half life of this compound dependes on pH. […] Based on these measured characteristics the compound 2-(2-carbamoylmethoxy-4-{2-[4-(3-methoxypropoxy)-3-methyl pyridin-2-yl methylsulfinyl]benzimidazole-1-sulfonyl}phenoxy)acetamide is expected to be well absorbed, and slowly release the parent RABEPRAZOLE in the blood, resulting in long-lasting in vivo activity. This compound can also be administered intravenously in an aqueous solution at pH 7.4 which solution may include 2-hydroxypropyl-β-cyclodextrin.
Inhibition of ATPase activity was measured using isolated hog gastric vesicles. The gastric H,K-ATPase (10 μg) was incubated at 37° C. in a solution (1 ml) composed of 0.25M sucrose, 20 mM Pipes/Tris, pH 7.4, 0.15M KCl, 2 mM MgCl2, valinomycin 2 μg/ml, and various concentration of compounds of the invention. At timed intervals, ATP was added (up to 2 mM) and incubated for 15 minutes and amount of released phosphate ion was measured. As a control experiment the prior art drug without a labile group on the benzimidazole nitrogen (e. g. OMEPRAZOLE or LANSOPRAZOLE) was used for measuring inhibition of enzyme activity.

[2] = Solubility in aqueous buffer; format: physicochemical
[3] = test system: gastric acid secretion of the conscious male rat; experiment: Inhibitory effect on gastric acid secretion of the conscious male rat at timed intervals after oral administration; format: in vivo; details: for % inhibition of gastric acid secretion: between 5.5-8.5 hours after oral administration, 10 μmole/kg, histamine and carbachol stimulated, male rat
[4] = test system: gastric acid secretion (histamine-stimulated acid output), pylorus-ligated male rats; experiment: Initial inhibition of gastric acid secretion after intraduodenal administration to pylorus-ligated rats; format: in vivo; details: 10 μmole/kg, after pylorus ligation, histamine 30 mg/kg s.c., acid output over four hours, rat
Description: Histamine (30 mg/kg) was subcutaneously injected to stimulate acid production. The abdomen was surgically closed immediately. Four hours later the esophagus was ligated and the stomach was removed. Acid output was measured as described above.

[5] = Relative plasma concentration of OMEPRAZOLE in male rat after oral administration; details: for Relative concentration of OMEPRAZOLE released in the plasma: male rat, examples 2 mg/kg, OMEPRAZOLE 4 mg/kg;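 for all read-outs here: Sprague-Dawley rats fasted one day with water available, dosed orally with prodrug compounds, OMEPRAZOLE quantified by HPLC in plasma from serial blood draws, control given OMEPRAZOLE itself orally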
Description: Male adult rats of the Sprague-Dawley strain were used for determining the concentration of OMEPRAZOLE in the plasma. All rats were derived of food but not of water for one day. Examples of compounds of the invention (2 mg/kg of rat weight) were orally administrated to male rats (weighing 250 g to 270 g) and blood samples (0.3 ml) were taken at timed intervals. Blood samples were centrifuged and plasma was taken out. Plasma was extracted with 0.5 ml of dichloromethane. Dichloromethane layer was evaporated by nitrogen/air blowing. The residual materials were dissolved in 0.5 ml of 40% acetonitrile in 10 mM phosphate buffer (pH 7.4). Amounts of OMEPRAZOLE were determined by HPLC analysis. As a control, OMEPRAZOLE (4 mg/kg of rat weight) was orally administrated.

[6] = after 5.75 hr hydrolysis at pH 7.4, 10 μM

T1 sequence (P19156 2-1034 limits assumed): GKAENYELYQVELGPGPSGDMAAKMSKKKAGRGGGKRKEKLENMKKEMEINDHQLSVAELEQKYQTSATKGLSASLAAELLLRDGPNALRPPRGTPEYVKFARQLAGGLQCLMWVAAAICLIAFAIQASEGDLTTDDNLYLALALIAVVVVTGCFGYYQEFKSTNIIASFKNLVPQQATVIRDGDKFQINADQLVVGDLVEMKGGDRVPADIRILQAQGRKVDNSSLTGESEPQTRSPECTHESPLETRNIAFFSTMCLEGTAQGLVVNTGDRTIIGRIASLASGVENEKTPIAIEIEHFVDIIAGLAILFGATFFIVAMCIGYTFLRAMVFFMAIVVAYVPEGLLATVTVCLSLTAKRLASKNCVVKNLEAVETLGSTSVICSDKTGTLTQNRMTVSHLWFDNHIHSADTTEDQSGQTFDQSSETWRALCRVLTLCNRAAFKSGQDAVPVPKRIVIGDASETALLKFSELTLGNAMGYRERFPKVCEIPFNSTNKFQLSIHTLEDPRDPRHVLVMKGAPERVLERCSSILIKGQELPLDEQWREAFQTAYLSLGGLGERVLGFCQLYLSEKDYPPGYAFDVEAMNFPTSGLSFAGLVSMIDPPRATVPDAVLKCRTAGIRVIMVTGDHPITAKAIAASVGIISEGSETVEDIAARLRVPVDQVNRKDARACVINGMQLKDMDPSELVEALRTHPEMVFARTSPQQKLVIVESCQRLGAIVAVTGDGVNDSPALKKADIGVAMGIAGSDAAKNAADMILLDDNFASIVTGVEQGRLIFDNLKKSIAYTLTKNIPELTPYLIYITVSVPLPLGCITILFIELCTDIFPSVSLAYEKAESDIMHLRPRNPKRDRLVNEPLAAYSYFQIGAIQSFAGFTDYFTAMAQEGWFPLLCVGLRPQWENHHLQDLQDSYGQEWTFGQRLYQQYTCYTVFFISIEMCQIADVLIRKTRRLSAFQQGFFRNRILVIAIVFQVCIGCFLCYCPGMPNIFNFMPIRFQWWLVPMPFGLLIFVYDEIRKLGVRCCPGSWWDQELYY
T1 sequence (P18434 whole entry partner): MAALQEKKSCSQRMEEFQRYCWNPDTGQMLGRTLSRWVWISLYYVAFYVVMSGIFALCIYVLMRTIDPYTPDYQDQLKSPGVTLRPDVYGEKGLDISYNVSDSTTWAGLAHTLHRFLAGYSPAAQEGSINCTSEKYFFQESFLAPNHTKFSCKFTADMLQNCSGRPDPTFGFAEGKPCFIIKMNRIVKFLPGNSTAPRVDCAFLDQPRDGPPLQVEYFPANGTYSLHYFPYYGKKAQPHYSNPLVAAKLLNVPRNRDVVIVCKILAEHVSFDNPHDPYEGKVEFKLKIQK

Molecule | compound still present intact (without decomposition) [1] | inhibition of enzyme activity after 80 minutes (gastric H,K-ATPase; 10 μM) | inhibition of enzyme activity after 80 minutes (gastric H,K-ATPase; 50 μM) | inhibition of gastric H,K-ATPase activity after 5.75 hr hydrolysis (gastric H,K-ATPase; [6]) | inhibition of gastric H,K-ATPase activity after 5.75 hr hydrolysis (gastric H,K-ATPase; after 5.75 hr hydrolysis at pH 7.4, 10 μM, listed as 1-benzenesulfonyl-5-methoxy-2-[(3,5-dimethyl-4-methoxy-2-pyridyl)methylsulfinyl], 10 µM) | inhibition of gastric H,K-ATPase activity initially (before hydrolysis) (gastric H,K-ATPase) | inhibition of gastric H,K-ATPase activity initially (before hydrolysis) (gastric H,K-ATPase; listed as 1-benzenesulfonyl-5-methoxy-2-[(3,5-dimethyl-4-methoxy-2-pyridyl)methylsulfinyl]) | solubility in aqueous buffer (comparison) [2] | gastric acid secretion after administration to male rat (in words) ([3]; administrated to male rat) | % inhibition of gastric acid secretion [3] | % inhibition of gastric acid secretion ([3]; listed as 2-{2-carbamoylmethoxy-4-[5-methoxy-2-(4-methoxy-3,5-dimethyl pyridin-2-yl)metha) | inhibition of histamine-stimulated acid output [4] | Relative concentration of OMEPRAZOLE released in the plasma ([5]; 20 min after oral administration) | Relative concentration of OMEPRAZOLE released in the plasma ([5]; 40 min after oral administration) | Relative concentration of OMEPRAZOLE released in the plasma ([5]; 60 min after oral administration) | Relative concentration of OMEPRAZOLE released in the plasma ([5]; 80 min after oral administration) | time until OMEPRAZOLE has completely disappeared from the plasma ([5]; administrated to male rat (control)) | inhibition at 10 µM (gastric H,K-ATPase; [6])
1-Benzenesulfonyl-5-methoxy-2-[(3,5-dimethyl-4-methoxy-2-pyridyl)methylsulfinyl]-1H-benzimidazole and 1-Benzensulfonyl-6-methoxy-2-[(3,5-dimethyl-4-methoxy-2-pyridyl)methylsulfinyl]-1H-benzimidazole [Example 1] | Approximately 90% | 10% | 50% | the same level of inhibition | 91% | failed to inhibit enzyme activity | did not inhibit | slightly higher solubility in aqueous buffer than the compound of Example 19 |  |  |  |  |  |  |  |  |  | 
2-{2-carbamoylmethoxy-4-[5-methoxy-2-((4-methoxy-3,5-dimethyl pyridin-2-yl)methylsulfinyl)benzimidazole-1-sulfonyl]phenoxy}acetamide and 2-{2-carbamoylmethoxy-4-[6-methoxy-2-((4-methoxy-3,5-dimethyl pyridin-2-yl)methylsulfinyl)benzimidazole-1-sulfonyl]phenoxy}acetamide [Example 74] |  |  |  |  |  |  |  |  | significantly and continuously inhibited | 49.7 ± 3.7% | 49.7% | 64.2% |  |  |  |  |  | 
COc1ccc2[nH]c([S+]([O-])Cc3ncc(C)c(OC)c3C)nc2c1 (stereo not drawn) [OMEPRAZOLE, 5-methoxy-2-[(3,5-dimethyl-4-methoxy-2-pyridyl)methylsulfinyl]-1H-benzimidazole, reference compound] |  |  |  | the same level of inhibition |  |  |  |  |  | 19.6% and 19.6 ± 3.9% |  | 54.6% | 28 arbitrary unit | 4 arbitrary unit | 2 arbitrary unit | 1 arbitrary unit | ≤ 1.5 h | 91%
